pKi: −log10 of the molar value. A value given as a limit tells only on which side of the number the result lay.

In patent US7659289B2, “Hydroxyethylene-based β-secretase inhibitors and use thereof” (CoMentis, Inc., priority 2004, dated 2010) one finds Ki data, which are given here for 20 molecules.

Assay [1] concerns the target memapsin 2 (Homo sapiens, UniProt P56817). The assay can be described thus: Inhibition of memapsin 2 beta-secretase activity toward fluorogenic substrate FS-2. Type of assay: biochemical. The note with it: pH 4, 37° C., 20 minutes pre-incubation, fluorogenic substrate FS-2, tight-binding model; read-out: M2 Ki.
Method: Potency of compounds were determined by measurement of their inhibition of memapsin 2 activity toward a fluorescent substrate. […] Briefly, assays were performed at pH 4, 37° C., by pre-incubation of memapsin 2 enzyme with compound for 20 minutes. Activity measure was initiated by addition of a fluorogenic substrate FS-2 (Bachem Americas, Torrance, Calif.). Fluorescent signal increase over time was measured as a rate of hydrolysis of the peptide substrate.
Assay [2] addresses Cathepsin D (Homo sapiens, UniProt P07339). The assay can be described thus: Inhibition of cathepsin D activity (MALDI-TOF, substrate peptide […]). Type of assay: biochemical. Particulars: pH 4.1, 37 degrees C., read-out: Cath D Ki.
Method: After equilibration at 37 degrees C., the reactions were initiated by the addition of an aliquot of memapsin 2. Aliquots were removed at time intervals, and combined with an equal volume of MALDI-TOF matrix (α-hydroxycinnamic acid in acetone, 20 mg/ml) and immediately spotted in duplicate onto a stainless-steel MALDI sample plate. MALDI-TOF mass spectrometry was performed on a PE Biosystems Voyager DE instrument at the Molecular Biology Resource Center on campus. The instrument was operated at 25,000 accelerating volts in positive mode with a 150 ns delay. Ions with a mass-to-charge ratio (m/z) were detected in the range of 650-2000 atomic mass units. Data was analyzed by the Voyager Data Explorer module to obtain ion intensity data for mass species of substrates and corresponding products in a given mixture. Relative product formation was calculated as the ratio of signal intensity of the product to the sum of signal intensities of both product and the corresponding substrate. Relative product formed per unit time was obtained from non-linear regression analysis of the data representing the initial 15% formation of product using the model: 1−e^−kT,
where k is the relative hydrolytic rate constant and T is time in seconds. Initial rates were expressed relative to uninhibited controls and fit to a tight-binding model of competitive inhibition as above.

memapsin 2, sequence (P56817 46-501): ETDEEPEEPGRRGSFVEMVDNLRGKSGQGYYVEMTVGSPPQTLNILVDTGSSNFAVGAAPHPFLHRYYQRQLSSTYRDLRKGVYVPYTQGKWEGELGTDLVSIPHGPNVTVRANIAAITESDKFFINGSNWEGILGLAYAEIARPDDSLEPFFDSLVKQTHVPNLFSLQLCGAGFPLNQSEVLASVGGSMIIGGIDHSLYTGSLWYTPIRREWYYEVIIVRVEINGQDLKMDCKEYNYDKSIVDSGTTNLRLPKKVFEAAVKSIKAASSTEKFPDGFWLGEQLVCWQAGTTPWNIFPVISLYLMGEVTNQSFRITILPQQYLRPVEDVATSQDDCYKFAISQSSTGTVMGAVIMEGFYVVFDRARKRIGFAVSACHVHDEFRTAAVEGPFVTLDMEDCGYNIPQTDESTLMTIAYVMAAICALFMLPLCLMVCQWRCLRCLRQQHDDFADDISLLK
Cathepsin D, sequence (P07339 65-412, species assumed): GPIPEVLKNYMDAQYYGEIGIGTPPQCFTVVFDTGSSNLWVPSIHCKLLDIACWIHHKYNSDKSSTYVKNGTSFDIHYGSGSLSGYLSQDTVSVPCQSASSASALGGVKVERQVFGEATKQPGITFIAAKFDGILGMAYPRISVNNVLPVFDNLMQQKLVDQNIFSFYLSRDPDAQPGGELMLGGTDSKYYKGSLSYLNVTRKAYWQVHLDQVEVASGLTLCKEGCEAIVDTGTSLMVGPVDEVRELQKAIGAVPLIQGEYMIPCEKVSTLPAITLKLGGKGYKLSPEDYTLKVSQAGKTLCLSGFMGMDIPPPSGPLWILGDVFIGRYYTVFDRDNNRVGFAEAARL

Consider `Cc1nc(COC(=O)N[C@@H](CC(=O)N(C)C)C(=O)N[C@@H](CC(C)C)[C@@H](O)C[C@@H](C)C(=O)N[C@H](C(=O)NCC(C)C)C(C)C)c(C)o1` [(2,5-dimethyloxazol-4-yl)methyl (5S,8S,9S,11R,14S)-9-hydroxy-8-isobutyl-14-isopropyl-2,11,18-trimethyl-3,6,12,15-tetraoxo-2,7,13,16-tetraazanonadecan-5-ylcarbamate], for which the pKi (usually the Ki on a negative log10 scale, so that one unit is a factor of ten) in assay [1] was 6.22 to 7.00. As for `Cc1nc(COC(=O)N[C@@H](CC(=O)NCc2ccncc2)C(=O)N[C@@H](CC(C)C)[C@@H](O)C[C@@H](C)C(=O)N[C@H](C(=O)NCC(C)C)C(C)C)c(C)o1` [(2,5-dimethyloxazol-4-yl)methyl (5S,8S,9S,11R,14S)-9-hydroxy-8-isobutyl-14-isopropyl-11,18-dimethyl-3,6,12,15-tetraoxo-1-(pyridin-4-yl)-2,7,13,16-tetraazanonadecan-5-ylcarbamate], the pKi in assay [1] was 6.22 to 7.00; in assay [2], over 7.00. For `Cc1nc(COC(=O)N[C@@H](CC(N)=O)C(=O)N[C@@H](CC(C)C)[C@@H](O)C[C@@H](C)C(=O)N[C@H](C(=O)NCC(C)C)C(C)C)c(C)o1` [(2,5-dimethyloxazol-4-yl)methyl (S)-4-amino-1-((4S,5S,7R)-5-hydroxy-8-((S)-1-(isobutylamino)-3-methyl-1-oxobutan-2-ylamino)-2,7-dimethyl-8-oxooctan-4-ylamino)-1,4-dioxobutan-2-ylcarbamate], the pKi was 6.22 to 7.00 in assay [1] and over 7.00 in assay [2]. Regarding `Cc1cc(C)n(CC(C)C(=O)N[C@@H](CC(N)=O)C(=O)N[C@@H](CC(C)C)[C@@H](O)C[C@@H](C)C(=O)N[C@H](C(=O)NCC(C)C)C(C)C)n1` (stereo partly drawn) [(2S)-2-(3-(3,5-dimethyl-1H-pyrazol-1-yl)-2-methylpropanamido)-N1-((4S,5S,7R)-5-hydroxy-8-((S)-1-(isobutylamino)-3-methyl-1-oxobutan-2-ylamino)-2,7-dimethyl-8-oxooctan-4-yl)succinamide], the pKi in assay [1] is 6.22 to 7.00. Take `Cc1cc(C)n(CCC(=O)N[C@@H](CC(N)=O)C(=O)N[C@@H](CC(C)C)[C@@H](O)C[C@@H](C)C(=O)NC(CO)C(=O)NCC(C)C)n1` (stereo partly drawn) [(2S)-2-(3-(3,5-dimethyl-1H-pyrazol-1-yl)propanamido)-N1-((4S,5S,7R)-5-hydroxy-8-(3-hydroxy-1-(isobutylamino)-1-oxopropan-2-ylamino)-2,7-dimethyl-8-oxooctan-4-yl)succinamide]: the pKi in assay [1] was under 6.22. As for `CC(=O)NC[C@H](NC(=O)OCc1nc(C)cs1)C(=O)N[C@@H](CC(C)C)[C@@H](O)C[C@@H](C)C(=O)N[C@H](C(=O)NCC(C)C)C(C)C` [(4-methylthiazol-2-yl)methyl (5S,8S,9S,11R,14S)-9-hydroxy-8-isobutyl-14-isopropyl-11,18-dimethyl-2,6,12,15-tetraoxo-3,7,13,16-tetraazanonadecan-5-yicarbamate], the pKi in assay [1] and in assay [2] was 6.22 to 7.00 each time. In the case of `Cc1csc(COC(=O)N[C@@H](CC(N)=O)C(=O)N[C@@H](CC(C)C)[C@@H](O)C[C@@H](C)C(=O)N[C@H](C(=O)NCC(C)C)C(C)C)n1` [(4-methylthiazol-2-yl)methyl (S)-4-amino-1-((4S,5S,7R)-5-hydroxy-8-((S)-1-(isobutylamino)-3-methyl-1-oxobutan2-ylamino)-2,7-dimethyl-8-oxooctan-4-ylamino)-1,4-dioxobutan-2-ylcarbamate], the pKi is 6.22 to 7.00 in assay [1] and under 6.22 in assay [2]. In the case of `COCCOCCOC(=O)C[C@H](NC(=O)OCc1nc(C)oc1C)C(=O)N[C@@H](CC(C)C)[C@@H](O)C[C@@H](C)C(=O)N[C@H](C(=O)NCC(C)C)C(C)C` [(S)-2-(2-methoxyethoxy)ethyl 3-(((2,5-dimethyloxazol-4-yl)methoxy)carbonylamino)-4-((4S,5S,7R)-5-hydroxy-8-((S)-1-(isobutylamino)-3-methyl-1-oxobutan-2-ylamino)2,7-dimethyl-8-oxooctan-4-ylamino)-4-oxobutanoate], the pKi in assay [1] and in assay [2] was over 7.00 throughout. In the case of `Cc1cc(C)n(CCC(=O)N[C@@H](CC(N)=O)C(=O)N[C@@H](CC(C)C)[C@@H](O)C[C@@H](C)C(=O)NC(C)(C)C(=O)NCC(C)C)n1` [(S)-2-(3-(3,5-dimethyl-1H-pyrazol-1-yl)propanamido)-N1-((4S,5S,7R)-5-hydroxy-8-(1-(isobutylamino)-2-methyl-1-oxopropan-2-ylamino)-2,7-dimethyl-8-oxooctan-4-yl)succinamide], the pKi in assay [1] is under 6.22. Same read-out and setting: to `Cc1cc(C)n(CCC(=O)N[C@@H](CC(N)=O)C(=O)N[C@@H](CC(C)C)[C@@H](O)C[C@@H](C)C(=O)NC2(C(=O)NCC(C)C)CCCC2)n1` [(S)-2-(3-(3,5-dimethyl-1H-pyrazol-1-yl)propanamido)-N1-((4S,5S,7R)-5-hydroxy-8-(1-(isobutylcarbamoyl)cyclopentylamino)-2,7-dimethyl-8-oxooctan-4-yl)succinamide] belongs under 6.22. Regarding `Cc1cc(C)n(CCC(=O)N[C@@H](CC(N)=O)C(=O)N[C@@H](CC(C)C)[C@@H](O)C[C@@H](C)C(=O)N[C@H](C(=O)NCC(C)C)C(C)C)n1` [(S)-2-(3-(3,5-dimethyl-1H-pyrazol-1-yl)propanamido)-N1-((4S,5S,7R)-5-hydroxy-8-((S)-1-(isobutylamino)-3-methyl-1-oxobutan-2-ylamino)-2,7-dimethyl-8-oxooctan-4-yl)succinamide], the pKi in assay [1] was 6.22 to 7.00; in assay [2] it was over 7.00. Regarding `COCC[C@H](NC(=O)[C@H](C)C[C@H](O)[C@H](CC(C)C)NC(=O)[C@H](CC(N)=O)NC(=O)CCn1nc(C)cc1C)C(=O)NCC(C)C` [(S)-2-(3-(3,5-dimethyl-1H-pyrazol-1-yl)propanamido)-N1-((4S,5S,7R)-5-hydroxy-8-((S)-1-(isobutylamino)-4-methoxy-1-oxobutan-2-ylamino)-2,7-dimethyl-8-oxooctan-4-yl)succinamide], the pKi in assay [1] was under 6.22. For `CC[C@@H](Cn1nc(C)cc1C)C(=O)N[C@@H](CC(N)=O)C(=O)N[C@@H](CC(C)C)[C@@H](O)C[C@@H](C)C(=O)N[C@H](C(=O)NCC(C)C)C(C)C` [(S)-2-((S)-2-((3,5-dimethyl-1H-pyrazol-1-yl)methyl)butanamido)-N1-((4S,5S,7R)-5-hydroxy-8-((S)-1-(isobutylamino)-3-methyl-1-oxobutan-2-ylamino)-2,7-dimethyl-8-oxooctan-4-yl)succinamide], the figures for the pKi in assay [1] and in assay [2] were 6.22 to 7.00 and over 7.00, respectively.

For `Cc1cc(C)n(CCC(=O)N[C@@H](CC(=O)O)C(=O)N[C@@H](CC(C)C)[C@@H](O)C[C@@H](C)C(=O)N[C@H](C(=O)NCC(C)C)C(C)C)n1` [(S)-3-(3-(3,5-dimethyl-1H-pyrazol-1-yl)propanamido)-4-((4S,5S,7R)-5-hydroxy-8-((S)-1-(isobutylamino)-3-methyl-1-oxobutan-2-ylamino)-2,7-dimethyl-8-oxooctan-4-ylamino)-4-oxobutanoic acid], the pKi in assay [1] was 6.22 to 7.00. Consider `Cc1nc(COC(=O)N[C@@H](CC(=O)O)C(=O)N[C@@H](CC(C)C)[C@@H](O)C[C@@H](C)C(=O)N[C@H](C(=O)NCC(C)C)C(C)C)c(C)o1` [(S)-3-(((2,5-dimethyloxazol-4-yl)methoxy)carbonylamino)-4-((4S,5S,7R)-5-hydroxy-8-((S)-1-(isobutylamino)-3-methyl-1-oxobutan-2-ylamino)2,7-dimethyl-8-oxooctan-4-ylamino)-4-oxobutanoic acid], for which the pKi in assay [1] was 6.22 to 7.00; in assay [2], over 7.00.

For the molecule `Cc1csc(C[C@H](C)C(=O)N[C@@H](CC(=O)O)C(=O)N[C@@H](CC(C)C)[C@@H](O)C[C@@H](C)C(=O)N[C@H](C(=O)NCC(C)C)C(C)C)n1` [(S)-4-((4S,5S,7R)-5-hydroxy-8-((S)-1-(isobutylamino)-3-methyl-1-oxobutan-2-ylamino)-2,7-dimethyl-8-oxooctan-4-ylamino)-3-((S)-2-methyl-3-(4-methylthiazol-2-yl)propanamido)-4-oxobutanoic acid], the pKi in assay [1] and in assay [2] was 6.22 to 7.00 in each case.

Take `Cc1csc(C[C@H](C)C(=O)N[C@@H](CC(N)=O)C(=O)N[C@@H](CC(C)C)[C@@H](O)C[C@@H](C)C(=O)N[C@H](C(=O)NCC(C)C)C(C)C)n1` [(S)-N1-((4S,5S,7R)-5-hydroxy-8-((S)-1-(isobutylamino)-3-methyl-1-oxobutan-2-ylamino)-2,7-dimethyl-8-oxooctan-4-yl)-2-((S)-2-methyl-3-(4-methylthiazol-2-yl)propanamido)succinamide]: the figures for the pKi in assay [1] and in assay [2] were 6.22 to 7.00 and over 7.00, respectively. Turning to `CCNC(=O)C[C@H](NC(=O)[C@@H](C)Cc1nc(C)cs1)C(=O)N[C@@H](CC(C)C)[C@@H](O)C[C@@H](C)C(=O)N[C@H](C(=O)NCC(C)C)C(C)C` [(S)-N4-ethyl-N1-((4S,5S,7R)-5-hydroxy-8-((S)-1-(isobutylamino)-3-methyl-1-oxobutan-2-ylamino)-2,7-dimethyl-8-oxooctan-4-yl)-2-((S)-2-methyl-3-(4-methylthiazol-2-yl)propanamido)succinamide], in assay [1], the pKi is over 7.00. Regarding `Cc1cc(C)n(CCC(=O)N[C@@H](CC(=O)OCc2ccccc2)C(=O)N[C@@H](CC(C)C)[C@@H](O)C[C@@H](C)C(=O)N[C@H](C(=O)NCC(C)C)C(C)C)n1` [(S)-benzyl 3-(3-(3,5-dimethyl-1H-pyrazol-1-yl)propanamido)-4-((4S,5S,7R)-5-hydroxy-8-((S)-1-(isobutylamino)-3-methyl-1-oxobutan-2-ylamino)-2,7-dimethyl-8-oxooctan-4-ylamino)-4-oxobutanoate], the pKi in assay [1] is over 7.00.

For the molecule `CC[C@H](Cc1nc(C)cs1)C(=O)N[C@@H](CNC(=O)OC(C)(C)C)C(=O)N[C@@H](CC(C)C)[C@@H](O)C[C@@H](C)C(=O)N[C@H](C(=O)NCC(C)C)C(C)C` [tert-butyl (S)-3-((4S,5S,7R)-5-hydroxy-8-((S)-1-(isobutylamino)-3-methyl-1-oxobutan-2-ylamino)-2,7-dimethyl-8-oxooctan-4-ylamino)-2-((R)-2-((4-methylthiazol-2-yl)methyl)butanamido)-3-oxopropylcarbamate], the pKi in assay [1] was under 6.22.
